Laboratory results taken from patent US8742106B2 (Novartis AG, priority 2009, dated 2014).

Tests used:
[1] = target: human orexin 1 receptors (Homo sapiens (Human), UniProt O43613); test: Calcium Accumulation in Cells (FLIPR), antagonism of orexin A; type: cell-based; conditions: for inhibition at 10 µM: measured at a concentration of 10 μM of compound, read-out: FLIPR hOx1R % inhibition value; for Ki: antagonism of orexin A, Cheng-Prusoff corrected, read-out: FLIPR hOx1R Ki
Experimental: (§1) Calcium Accumulation in Cells (FLIPR):
Cells expressing human orexin 1 or human orexin 2 receptors, were seeded at 8,000 cells/well in 384 well black-walled clear bottom, poly-D-lysine coated plates. After 24 h, the medium was removed and cells were washed once with phosphate buffered saline and serum-deprived overnight in assay buffer (130 mM NaCl, 5.4 mM KCl, 1.8 mM CaCl2, 0.8 mM MgSO4, 0.9 mM NaH2PO4, 25 mM glucose, 20 mM HEPES, pH 7.4) containing bovine serum albumin (1% w/v).
On the day of the experiment, the cells seeded in black plates were treated with assay buffer containing the Ca^2+ sensitive fluorescent dye Fluo4-AM (2 μM), and probenecid (0.1 mM). After 1 h plates were washed twice with, and resuspended in, assay buffer containing probenecid (0.1 mM) using a multi plate washer. The plates were placed into a FLIPR II (Fluorometric Imaging Plate Reader, Molecular Devices, Sunnyvale, Calif., USA) and baseline fluorescence (fluorescence light units, FLU) was measured (5 measurements, 2 S each; laser excitation 488 nm at 0.6-1 W, CCD camera exposure 0.4 s) before addition of buffer alone (basal) or containing test compounds (either compound of formula (I) or (I′) alone, agonist alone or agonist in the presence of various concentrations of compounds of formula (I) or (I′)). Fluorescence measurements were then continued every 1 S for 120 S followed by every 4 S for 240 S.
(§2) The measurements were typically made in two sequences:
(§3) In the first round, compounds of formula (I) or (I′) were tested alone, to detect possible agonist activity. Compounds of formula I or I′ were tested usually in a concentration range from 10^−9 M to 10^−5 M.
(§4) In the second round, performed one hour later (to allow for equilibration), Orexin A was tested either in the absence (calibration curves, Orexin A agonist controls) or in the presence of compounds of formula (I) or (I′) to determine antagonism.

[2] = target: human orexin 2 receptors (Homo sapiens (Human), UniProt O43614); test: as above; type: cell-based; conditions: for inhibition at 10 µM: measured at a concentration of 10 μM of compound, read-out: FLIPR hOx2R % inhibition value; for Ki: antagonism of orexin A, Cheng-Prusoff corrected, read-out: FLIPR hOx2R Ki
Sequence of human orexin 2 receptors (O43614 whole entry): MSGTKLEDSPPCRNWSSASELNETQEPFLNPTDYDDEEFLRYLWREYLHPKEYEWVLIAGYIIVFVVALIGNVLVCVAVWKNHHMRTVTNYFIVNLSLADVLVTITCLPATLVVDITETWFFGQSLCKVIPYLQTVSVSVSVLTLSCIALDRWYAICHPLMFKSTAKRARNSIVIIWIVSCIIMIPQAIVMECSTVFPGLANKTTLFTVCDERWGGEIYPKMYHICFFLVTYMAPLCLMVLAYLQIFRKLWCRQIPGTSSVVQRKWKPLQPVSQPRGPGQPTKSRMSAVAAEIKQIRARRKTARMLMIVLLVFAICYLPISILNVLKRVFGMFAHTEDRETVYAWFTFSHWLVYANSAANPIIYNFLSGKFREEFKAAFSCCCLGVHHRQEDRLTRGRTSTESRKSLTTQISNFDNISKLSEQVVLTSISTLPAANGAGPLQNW
Experimental: as §1
Cells expressing human orexin 1 or human orexin 2 receptors, were seeded at 8,000 cells/well in 384 well black-walled clear bottom, poly-D-lysine coated plates.
On the day of the experiment, the cells seeded in black plates were treated with assay buffer containing the Ca^2+ sensitive fluorescent dye Fluo4-AM (2 μM), and probenecid (0.1 mM). After 1 h plates were washed twice with, and resuspended in, assay buffer containing probenecid (0.1 mM) using a multi plate washer. […] Fluorescence measurements were then continued every 1 S for 120 S followed by every 4 S for 240 S.
as §2, §3, §4

Sequence of human orexin 1 receptors (O43613 whole entry): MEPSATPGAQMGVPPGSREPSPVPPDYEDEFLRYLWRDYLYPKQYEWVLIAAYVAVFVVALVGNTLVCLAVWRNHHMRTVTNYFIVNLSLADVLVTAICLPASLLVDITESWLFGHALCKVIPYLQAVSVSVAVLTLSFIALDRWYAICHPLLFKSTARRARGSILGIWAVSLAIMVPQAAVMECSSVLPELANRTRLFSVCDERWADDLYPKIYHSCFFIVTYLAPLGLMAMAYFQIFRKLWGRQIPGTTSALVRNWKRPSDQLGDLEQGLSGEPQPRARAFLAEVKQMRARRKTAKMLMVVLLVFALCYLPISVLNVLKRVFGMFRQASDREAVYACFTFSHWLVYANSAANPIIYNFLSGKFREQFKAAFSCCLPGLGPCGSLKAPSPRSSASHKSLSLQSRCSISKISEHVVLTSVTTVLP

CC(Oc1cc(C(F)(F)F)c2c(-c3ccccc3)nn(C)c2n1)C(=O)N[C@@H](C)c1ccccc1 (single isomer, unassigned) [Example 1.74]
inhibition at 10 µM [1]: < 10% | inhibition at 10 µM [2]: < 10%

COc1ccc2c(c1)CC[C@@H]2NC(=O)C(C)Oc1cc(C)c2c(C3CC3)nn(C)c2n1 (single isomer, unassigned) [Example 6.72, (S or R)-2-(3-cyclopropyl-1,4-dimethyl-1H-pyrazolo[3,4-b]pyridin-6-yloxy)-N-((S)-5-methoxy-2,3-dihydro-1H-inden-1-yl)propanamide]
inhibition at 10 µM [1]: 46% | inhibition at 10 µM [2]: 48%

COc1ccc([C@H](C)NC(=O)C(C)Oc2cc(C)c3c(C4CC4)nn(C)c3n2)cc1 (single isomer, unassigned) [Example 6.73, (S or R)-2-(3-cyclopropyl-1,4-dimethyl-1H-pyrazolo[3,4-b]pyridin-6-yloxy)-N-((S)-1-(4-methoxyphenyl)ethyl)propanamide]
inhibition at 10 µM [1]: 43% | inhibition at 10 µM [2]: 29%

C[C@H](NC(=O)COc1cc(C(F)(F)F)c2c(-c3ccccc3)n[nH]c2n1)c1ccccc1 [Example 1.2, (S)-2-(3-phenyl-4-(trifluoromethyl)-1H-pyrazolo[3,4-b]pyridin-6-yloxy)-N-(1-phenylethyl)acetamide]
Ki [1]: 200 nM | Ki [2]: 43 nM

CCOc1ccccc1CNC(=O)COc1cc(C(F)(F)F)c2c(-c3ccccc3)nn(C)c2n1 [Example 1.7, N-(2-ethoxybenzyl)-2-(1-methyl-3-phenyl-4-(trifluoromethyl)-1H-pyrazolo[3,4-b]pyridin-6-yloxy)acetamide]
Ki [1]: 1020 nM | Ki [2]: 337 nM

Cn1nc(-c2ccccc2)c2c(C(F)(F)F)cc(OCC(=O)NCc3cccc(F)c3)nc21 [Example 1.8, N-(3-fluorobenzyl)-2-(1-methyl-3-phenyl-4-(trifluoromethyl)-1H-pyrazolo[3,4-b]pyridin-6-yloxy)acetamide]
inhibition at 10 µM [1]: 39% | Ki [2]: 1620 nM

Cn1nc(-c2ccccc2)c2c(C(F)(F)F)cc(OCC(=O)NC3CCCCC3)nc21 [Example 1.9, N-cyclohexyl-2-(1-methyl-3-phenyl-4-(trifluoromethyl)-1H-pyrazolo[3,4-b]pyridin-6-yloxy)acetamide]
inhibition at 10 µM [1]: 32% | Ki [2]: 2500 nM

Cn1nc(-c2ccccc2)c2c(C(F)(F)F)cc(OCC(=O)NC3CCCC3)nc21 [Example 1.10, N-cyclopentyl-2-(1-methyl-3-phenyl-4-(trirfluoromethyl)-1H-pyrazolo[3,4-b]pyridin-6-yloxy)acetamide]
Ki [1]: 650 nM | Ki [2]: 324 nM

Cn1nc(-c2ccccc2)c2c(C(F)(F)F)cc(OCC(=O)NCc3ccc(Cl)cc3)nc21 [Example 1.11, N-(4-chlorobenzyl)-2-(1-methyl-3-phenyl-4-(trifluoromethyl)-1H-pyrazolo[3,4-b]pyridin-6-yloxy)acetamide]
Ki [1]: 2010 nM | Ki [2]: 251 nM

Cn1nc(-c2ccccc2)c2c(C(F)(F)F)cc(OCC(=O)NCc3ccccc3)nc21 [Example 1.12, N-benzyl-2-(1-methyl-3-phenyl-4-(trifluoromethyl)-1H-pyrazolo[3,4-b]pyridin-6-yloxy)acetamide]
Ki [1]: 2500 nM | Ki [2]: 1380 nM

Cc1cc(OCC(=O)NCc2ccccc2Cl)nc2c1c(-c1ccccc1)nn2C [Example 1.14, N-(2-chlorobenzyl)-2-(1,4-dimethyl-3-phenyl-1H-pyrazolo[3,4-b]pyridin-6-yloxy)acetamide]
Ki [1]: 422 nM | inhibition at 10 µM [2]: 33%

Cc1cc(OCC(=O)NCc2ccc3c(c2)OCO3)nc2c1c(-c1ccccc1)nn2C [Example 1.15, N-(benzo[d][1,3]dioxol-5-ylmethyl)-2-(1,4-dimethyl-3-phenyl-1H-pyrazolo[3,4-b]pyridin-6-yloxy)acetamide]
inhibition at 10 µM [1]: 44% | inhibition at 10 µM [2]: 39%

C[C@H](NC(=O)COc1cc(C(F)(F)F)c2c(-c3ccccn3)nn(C)c2n1)c1ccccc1 [Example 1.21, (S)-2-(1-methyl-3-(pyridin-2-yl)-4-(trifiuoromethyl)-1H-pyrazolo[3,4-b]pyridin-6-yloxy)-N-(1-phenylethyl)acetamide]
inhibition at 10 µM [1]: 38% | inhibition at 10 µM [2]: 29%

C[C@H](NC(=O)COc1cc(C(F)(F)F)c2c(-c3ccncc3)nn(C)c2n1)c1ccccc1 [Example 1.25, (S)-2-(1-methyl-3-(pyridin-4-yl)-4-(trifluoromethyl)-1H-pyrazolo[3,4-b]pyridin-6-yloxy)-N-(1-phenylethyl)acetamide]
inhibition at 10 µM [1]: 54% | inhibition at 10 µM [2]: 52%

Cc1ccccc1-c1nn(C)c2nc(OCC(=O)N[C@@H](C)c3ccccc3)cc(C(F)(F)F)c12 [Example 1.26, (S)-2-(1-methyl-3-o-tolyl-4-(trifluoromethyl)-1H-pyrazolo[3,4-b]pyridin-6-yloxy)-N-(1-phenylethyl)acetamide]
Ki [1]: 218 nM | Ki [2]: 183 nM

C[C@@H](NC(=O)COc1cc(C(F)(F)F)c2c(-c3ccccc3)nn(C)c2n1)c1ccccc1 [Example 1.27, (R)-2-(1-methyl-3-phenyl-4-(trifluoromethyl)-1H-pyrazolo[3,4-b]pyridin-6-yloxy)-N-(1-phenylethyl)acetamide]
inhibition at 10 µM [1]: 33% | inhibition at 10 µM [2]: 35%

Cc1ccc(C(C)NC(=O)COc2cc(C(F)(F)F)c3c(-c4ccccc4)nn(C)c3n2)o1 (centres unmarked) [Example 1.28, 2-(1-methyl-3-phenyl-4-(trifluoromethyl)-1H-pyrazolo[3,4-b]pyridin-6-yloxy)-N-(1-(5-methylfuran-2-yl)ethyl)acetamide]
Ki [1]: 941 nM | Ki [2]: 411 nM

CC(NC(=O)COc1cc(C(F)(F)F)c2c(-c3ccccc3)nn(C)c2n1)c1ccccn1 (centres unmarked) [Example 1.29, 2-(1-methyl-3-phenyl-4-(trifluoromethyl)-1H-pyrazolo[3,4-b]pyridin-6-yloxy)-N-(1-(pyridin-2-yl)ethyl)acetamide]
Ki [1]: 2670 nM | inhibition at 10 µM [2]: 44%

CC(NC(=O)COc1cc(C(F)(F)F)c2c(-c3ccccc3)nn(C)c2n1)c1cccnc1 (centres unmarked) [Example 1.30, 2-(1-methyl-3-phenyl-4-(trifluoromethyl)-1H-pyrazolo[3,4-b]pyridin-6-yloxy)-N-(1-(pyridin-3-yl)ethyl)acetamide]
Ki [1]: 970 nM | Ki [2]: 582 nM

CC(NC(=O)COc1cc(C(F)(F)F)c2c(-c3ccccc3)nn(C)c2n1)c1ccncc1 (centres unmarked) [Example 1.31, 2-(1-methyl-3-phenyl-4-(trifluoromethyl)-1H-pyrazolo[3,4-b]pyridin-6-yloxy)-N-(1-(pyridin-4-yl)ethyl)acetamide]
Ki [1]: 2110 nM | inhibition at 10 µM [2]: 40%

COc1cccc(CNC(=O)COc2cc(C(F)(F)F)c3c(-c4ccccc4)nn(C)c3n2)c1 [Example 1.33, N-(3-methoxybenzyl)-2-(1-methyl-3-phenyl-4-(trifluoromethyl)-1H-pyrazolo[3,4-b]pyridin-6-yloxy)acetamide]
Ki [1]: 1650 nM | Ki [2]: 427 nM

C[C@H](NC(=O)COc1cc(C(F)(F)F)c2c(-c3cccnc3)nn(C)c2n1)c1ccccc1 [Example 1.34, (S)-2-(1-methyl-3-(pyridin-3-yl)-4-(trifluoromethyl)-1H-pyrazolo[3,4-b]pyridin-6-yloxy)-N-(1-phenylethyl)acetamide]
Ki [1]: 869 nM | Ki [2]: 323 nM

Cc1n[nH]c(C)c1[C@@H](C)NC(=O)COc1cc(C(F)(F)F)c2c(-c3ccccc3)nn(C)c2n1 [Example 1.62, (R)-N-(1-(3,5-dimethyl-1H-pyrazol-4-yl)ethyl)-2-(1-methyl-3-phenyl-4-(trifluoromethyl)-1H-pyrazolo[3,4-b]pyridin-6-yloxy)acetamide]
inhibition at 10 µM [2]: 36%

COc1ccc([C@H](C)NC(=O)COc2cc(C)c3c(-c4cc(OC)cc(OC)c4)nn(C)c3n2)cc1 [Example 6.1, (S)-2-((3-(3,5-dimethoxyphenyl)-1,4-dimethyl-1H-pyrazolo[3,4-b]pyridin-6-yl)oxy)-N-(1-(4-methoxyphenyl)ethyl)acetamide]
Ki [2]: 185 nM

COc1ccc2c(c1)CC[C@H]2NC(=O)COc1cc(C)c2c(C3CC3)nn(C)c2n1 [Example 6.4, (R)-2-(3-cyclopropyl-1,4-dimethyl-1H-pyrazolo[3,4-b]pyridin-6-yloxy)-N-(5-methoxy-2,3-dihydro-1H-inden-1-yl)acetamide]
Ki [1]: 1760 nM
